Assays:
[1] = Clinical chemistry and hematology in rat 48 h after intravenous 2 mpk dose; assay type: in vivo; conditions: 48 h post dose
Protocol: Sample formulations of nanoparticle compositions including different lipids were administered intravenously to rat at a dose of 2 mpk. The expression of various clinical markers was evaluated at 48 h post dose and compared to that induced by administration of MC3 formulations or phosphate buffered saline (PBS).

[2] = system: mRNA encoding anti-HA antibody; experiment: Anti-HA (anti-hemagglutinin) antibody expression after intravenous infusion to cynomolgus monkeys; assay type: in vivo; conditions: iv infusion 60 minutes
Protocol: FIGS. 11A and 11B show the results of anti-HA (anti-hemagglutinin) antibody expression measured after intravenous administration of various nanoparticle compositions including MC3 and Compound 18 at a 0.1 mpk (FIG. 11A) or 0.3 mpk (FIG. 11B) dose with 60 minutes infusion to naive cynomolgus monkeys.
FIGS. 31A-31C is a series of graphs illustrating the expression profile for lipid nanoparticles of the disclosure in a cynomolgus money study. FIG. 31A illustrates hEPO serum concentrations after delivery of 0.01 mg/kg hEPO mRNA in MC3 or Compound 18. The liquid nanoparticles were administered intravenously, via a 60 min. infusion (n=3). p<0.05 for Compound 18 AUC relative to MC3.
FIG. 36 is a graph illustrating Human IgG expression in a cynomolgus monkey administered with 0.1 mg/kg human IgG mRNA in a composition comprising MC3 or compound 18, intravenously via a 60 min. infusion (n=3).
Results of hEPO expression studies were validated using a standard MC3 formulation and a nanoparticle composition containing Compound 18 including an mRNA encoding an anti-hemagglutinin (anti-HA) antibody. Cynomolgus monkeys were administered a single dose of 0.1 mpk or 0.3 mpk of nanoparticle composition containing Compound 18 (see Table 33; prepared according to Example 2) including an mRNA encoding anti-HA antibody via intravenous infusion for 60 minutes.

[3] = Chemical stability of lipids in ethanol at room temperature and 37° C. (lipid purity); assay type: physicochemical
Protocol: Ester linkages were previously reported to trigger metabolism by esterases in vivo. (See Fukami, T. et al. Drug Metab. Pharmacokinet. 2012, 27, 466-477, the content of which is incorporated by reference herein in its entirety). […] (See Maier M. A., Mol. Ther. 2013, 21, 1570-1578, the content of which is incorporated herein in its entirety) First, the chemical stability of the lipids was evaluated by measuring ethanol stability at room temperature and 37° C. (Table 39). […] LNPs formed with compound 138 were larger, with a surface pKa>7. […] Removal of one ester function (compound 136) afforded LNPs with improved physiochemical characteristics and lower LNP surface pKa.

[4] = Pharmacokinetic study of lipids in plasma, liver and spleen (compound 18, compound 25, MC3); conditions: for clearance from liver tissue: rat pharmacokinetic study, 24-48 hours; for half-life / AUC / Cmax / Tmax: male, Sprague-Dawley, rat, iv; for HL: table titled mouse
Protocol: LNP administration to animals: mRNA-LNPs diluted in phosphate buffered saline (PBS) were injected intravenously (5 mL/kg) into female CD-1 female mice (18 to 22 g in body weight) and male Sprague-Dawley rats (225-250 g in body weight) via the tail vein using 29 g, 3/10 cc insulin syringes (mice) or 27 g, 1 mL syringes (rats) after gentle warming of the animals using a heat lamp for 3 minutes.
Protein was precipitated and analyzed against calibration standards prepared in matching blank. Chromatographic separation and quantification was accomplished with a LC-MS/MS System. Samples were injected and separated via HPLC A triple-quadrupole MS/MS system operated in positive ion mode was used for signal detection.
PK analysis of the individual plasma and tissue concentration data was performed using anon-validated program (Phoenix WinNonlin®, Version 7.0 (Pharsight Corp., Mountain View, Calif.)). Kinetic parameters were estimated using a noncompartmental model (Plasma (200-202), Uniform weighting, extravascular dosing with sparse sampling). The AUG was calculated using the linear trapezoidal rule. All derived parameters are reported to 3 significant figures with the exception of time to peak concentration (Tmax) and halflife (HL), which are reported to one decimal place. No further statistical analyses were performed on the plasma concentration data or derived pharacokinetic parameters.

[5] = system: luciferase (Luc) mRNA; experiment: Luciferase expression (whole body bioluminescence) after intravenous administration to mice; assay type: in vivo; conditions: for Fold increase in Luc expression over MC3 upon intravenous administration: higher doses than the intramuscular data; for Fold increase in Luc expression over MC3 upon intravenous administration / Novel lipid/MC3 expression ratio, i.v. / Total Flux 3 hours / Total Flux 6 hours / Total Flux 24 hours: intravenous; for Novel lipid/MC3 expression ratio, i.v.: luciferase, 6 hr. time point, relative to MC3 formulation; for Total Flux 3 hours / Total Flux 6 hours / Total Flux 24 hours: mice (n=6), 0.5 mg/kg
Outline: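 Mice (n=6) received lipid nanoparticle formulations carrying luciferase mRNA intravenously at 0.5 mg/kg. Whole-body bioluminescence was measured at 3, 6 and 24 h. Total flux was taken as area under the curve and expressed relative to a standard MC3 formulation.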

[6] = system: hEPO mRNA; experiment: hEPO expression after intramuscular administration to mice; assay type: in vivo; conditions: for Novel lipid/MC3 ratio, i.m. hEPO: Table 3G, intramuscular, 6 hr. timepoint, relative to MC3
Protocol: The numbers 1-11 in this figure correspond to MC3, Compounds 18, 25, 30, 108-112, 60, and 122 respectively.
The expression of hEPO and cytokine induction in mice intravenously administered a nanoparticle composition at a dose of 0.5 mpk were measured at 3, 6, and 24 hours. […] The expression of hEPO in mice intramuscularly administered a nanoparticle composition from Table 1B at a dose of 0.01 mpk were measured at 3, 6, and 24 hours. […] (see

[7] = intravenous administration (Table 3D)

CCCCCCCCCN(CCO)CCCCCCCC(=O)OC(CCCCCCCC)CCCCCCCC [Compound 3, Heptadecan-9-yl 8-((2-hydroxyethyl)(nonyl)amino)octanoate]
Concentration, Alanine aminotransferase [1]: 53.5 | Concentration, Aspartate aminotransferase [1]: 87.5 | Concentration, Lymphocytes [1]: 12051 | Concentration, Monocytes [1]: 2103 | Concentration, Neutrophils [1]: 3388.5

CCCCCCCCCOC(=O)CCCCCCCN(CCO)CCCCCCCC(=O)OC(CCCCCCCC)CCCCCCCC [Compound 18, Heptadecan-9-yl 8-((2-hydroxyethyl)(8-(nonyloxy)-8-oxooctyl)amino)octanoate]
AUC (anti-HA antibody expression) ([2]; Dose 0.1 mpk): 354.3 µg·h/mL | AUC (anti-HA antibody expression) ([2]; Dose 0.3 mpk): 1055 µg·h/mL | Lipid Purity, t = 96 h, 25° C. [3]: 94.71% | Lipid Purity, t = 96 h, 37° C. [3]: 95.01% | Lipid Purity, t = 0 [3]: 94.37% | clearance from liver tissue ([4]; liver): efficiently cleared from liver tissue by 24 hours | Fold increase in Luc expression over MC3 upon intravenous administration [5]: highest fold increase

CCCCCC/C=C\COC(=O)CCCCCCCN(CCO)CCCCCCCC(=O)OC(CCCCCCCC)CCCCCCCC [Compound 24, Heptadecan-9-yl (Z)-8-((2-hydroxyethyl) (8-(non-2-en-1-yloxy)-8-oxooctyl)amino)octanoate]
Concentration, Alanine aminotransferase [1]: 51.5 | Concentration, Aspartate aminotransferase [1]: 90 | Concentration, Lymphocytes [1]: 14100 | Concentration, Monocytes [1]: 1834 | Concentration, Neutrophils [1]: 1790.5

CCCCCCCCCCCOC(=O)CCCCCN(CCO)CCCCCCCC(=O)OC(CCCCCCCC)CCCCCCCC [Compound 25, Heptadecan-9-yl 8-((2-hydroxyethyl)(6-oxo-6-(undecyloxy)hexyl)amino)octanoate]
Novel lipid/MC3 ratio, i.m. hEPO [6]: 7.1 | Concentration, Alanine aminotransferase [1]: 52 | Concentration, Aspartate aminotransferase [1]: 124.5 | Concentration, Lymphocytes [1]: 15924 | Concentration, Monocytes [1]: 2122 | Concentration, Neutrophils [1]: 1998 | Lipid Purity, t = 96 h, 25° C. [3]: 96.23% | Lipid Purity, t = 96 h, 37° C. [3]: 96.13% | Lipid Purity, t = 0 [3]: 95.58% | half-life ([4]; liver): 6.9 h | clearance from liver tissue ([4]; liver): efficiently cleared from liver tissue by 24 hours

CCCCCCCCCOC(=O)CCCN(CCO)CCCCCCCC(=O)OC(CCCCCCCC)CCCCCCCC [Compound 26, Heptadecan-9-yl 8-((2-hydroxyethyl)(4-(nonyloxy)-4-oxobutyl)amino) octanoate]
Lipid Purity, t = 96 h, 25° C. [3]: 97.38% | Lipid Purity, t = 96 h, 37° C. [3]: 95.72% | Lipid Purity, t = 0 [3]: 98.64% | Fold increase in Luc expression over MC3 upon intravenous administration [5]: highest fold increase

CCCCCCCCCOC(=O)CCCCCCCN(CCO)CCCCCCCOC(=O)C(CCCCCCCC)CCCCCCCC [Compound 30, 7-((2-Hydroxyethyl)(8-(nonyloxy)-8-oxooctyl)amino)heptyl 2-octyldecanoate]
Novel lipid/MC3 ratio, i.m. hEPO [6]: 9.2 | Concentration, Alanine aminotransferase [1]: 56 | Concentration, Aspartate aminotransferase [1]: 95 | Concentration, Lymphocytes [1]: 10408.5 | Concentration, Monocytes [1]: 877 | Concentration, Neutrophils [1]: 3195

CCCCCCCCC(C)OC(=O)CCCCCCCN(CCO)CCCCCCCC(=O)OC(CCCCCCCC)CCCCCCCC (stereo not drawn) [Compound 48, decan-2-yl 8-((8-(heptadecan-9-yloxy)-8-oxooctyl)(2-hydroxyethyl)amino)octanoate]
Novel lipid/MC3 expression ratio, i.v. [5]: 10.0

CCCCCC=CCC=CCCCCCCCCC(CCCCCCCCC=CCC=CCCCCC)OC(=O)CCCN(C)C (stereo not drawn) [MC3, heptatriaconta-6,9,28,31-tetraen-19-yl 4-(dimethylamino)butanoate, reference compound]
Fold increase in hEPO concentration relative to MC3 ([6]; mice, intramuscular 0.01 mpk, 6 hr time point): 1 | Concentration, Alanine aminotransferase [1]: 339 | Concentration, Aspartate aminotransferase [1]: 325 | Concentration, Lymphocytes [1]: 19976 | Concentration, Monocytes [1]: 1429 | Concentration, Neutrophils [1]: 4962.5 | AUC (anti-HA antibody expression) ([2]; Dose 0.1 mpk): 77.05 µg·h/mL | AUC (anti-HA antibody expression) ([2]; Dose 0.3 mpk): 235.7 µg·h/mL | HL ([4]; Liver, * = 2 terminal datapoints estimation): 52.5* hr | HL ([4]; Plasma): 8.4 h | HL ([4]; Spleen, * = 2 terminal datapoints estimation): 33.3* hr | AUC ([4]; liver): 1410 µg·h/mL | Cmax ([4]; liver): 33000 ng/mL | Tmax ([4]; liver): 24 h | half-life ([4]; liver): > 50 h | AUC ([4]; plasma): 69.1 µg·h/mL | Cmax ([4]; plasma): 28900 ng/mL | Tmax ([4]; plasma): 0.5 h | AUC ([4]; spleen): 787 µg·h/mL | Cmax ([4]; spleen): 21200 ng/mL | Tmax ([4]; spleen): 8 h | clearance from liver tissue ([4]; liver): still present at high concentrations at 48 hours | Lipid/MC3 Luc expression ([5]; 0.5 mpk dose to mouse, 6 hours after administration): 1 | Average total flux (6 h, ffluc) ([5]; 6 h, ffluc): 6.59 × 10^9 | Fold increase in average total flux relative to MC3 ([5]; 6 h, ffluc): 1 | AUC ([5]; i.v. administration (Table 3C)): 8.24E+10 h*p/s | Fold increase AUC Lipid/MC3 ([5]; i.v. administration (Table 3C)): 1 | Fold increase in total body Luc Flux relative to MC3 at 6 h ([5]; i.v. administration, 6 h): 1.00 | 6 h Lipid/MC3 Avg. Luc Expression ([5]; i.v. administration, 6 h (Table 3C)): 1 | AUC [5, 7]: 1.909E+011 p/s*h | Lipid/MC3 AUC [5, 7]: 1 | Total Flux 3 hours [5]: 1.58E+10 | Total Flux 6 hours [5]: 2.12E+10 | Total Flux 24 hours [5]: 7.19E+08

Nonyl 8-((6-(heptadecan-9-yloxy)-6-oxohexyl)(2-hydroxyethyl)amino) octanoate [Compound 27]
Fold increase in total body Luc Flux relative to MC3 at 6 h ([5]; i.v. administration, 6 h): 0.31 | Novel lipid/MC3 expression ratio, i.v. [5]: 0.31 | Total Flux 3 hours [5]: 1.64E+10 | Total Flux 6 hours [5]: 1.03E+10 | Total Flux 24 hours [5]: 1.94E+09

Reference: patent US10857105B2, “Compounds and compositions for intracellular delivery of therapeutic agents” (ModernaTX, Inc., priority 2017, dated 2020)
